Measurements taken from publication PMC7391959 (ACS Omega, 2020).
Read-outs that look alike come from different tables or passages of the source.

How the values were obtained:
[1] = molecular target: β-glucosidase (almonds); assay: Glycosidase inhibition assay, β-glucosidase; format: biochemical; settings: for IC50: pH 6.8, 25 °C, 100 μM = maximum inhibitor concentration tested; for inhibition: at 100 μM inhibitor concentration
Experimental: (§1) Inhibition assays for glycosidases were accomplished using the methodology reported by Bols and co-workers.[32] The percentage of inhibition was measured by preparing two 1.2 mL samples in PS cuvettes containing 0.1 M phosphate buffer (pH 6.8 or 5.6 for mannosidases) and the corresponding o- or p-nitrophenyl-glycopyranoside at a concentration equal to the expected value of KM: [S] = 0.25 mM for α-glucosidase, 4.0 mM for β-glucosidase; 0.60 mM for α-galactosidase, 0.51 mM for β-galactosidase (E. coli), 1.5 mM for β-galactosidase (A. oryzae), 0.90 mM for α-mannosidase, and 0.58 mM for β-mannosidase. DMSO (control) or inhibitor solution (DMSO) plus water was added up to a constant volume of 1.14 mL. Screenings were conducted using a 100 μM final inhibitor concentration.
(§2) Reactions were started by adding 60 μL of properly diluted enzyme solution at 25 ± 0.1 °C or 35 ± 0.1 °C (for mannosidases), and the formation of the corresponding o- or p-nitrophenolate was monitored for 125 s by measuring the increase in absorbance at 400 nm (glucosidases and α-galactosidase) or 420 nm (β-galactosidases) for 125 s. For α- and β-mannosidases, an aliquot (200 μL) was taken every 60 s and added to a 1 M Na2CO3 solution (1.8 mL), and the absorbance was measured at 400 nm over a period of 4 min.
(§3) Initial rates (slopes of the plots Abs vs t) were used for calculating %I, according to the following expression: [drawing 1] where v0 is the reaction rate for the enzyme solution and v is the reaction rate for the reactions incorporating an inhibitor.
(§4) DMSO concentration was maintained at 5% (v/v) of the total assay mixture for glycosidases.
(§5) The mode of inhibition was determined using the Cornish-Bowden method,[33] which involves the use of two different plots: 1/v vs [I] (Dixon plot) and [S]/v vs [I]. For the calculation of kinetic parameters (KM, Vmax), a nonlinear regression analysis (least-squares fit) was used.

[2] = molecular target: T1, α-galactosidase (green coffee beans) (Coffea arabica, UniProt Q42656); assay: Glycosidase inhibition assay, α-galactosidase; format: biochemical; settings: at 100 μM inhibitor concentration
T1 construct: purchased
Experimental: as §1, §2, §3, §4, §5

[3] = test system: β-mannosidase (H. pomatia); assay: Glycosidase inhibition assay, β-mannosidase; format: biochemical, Helix pomatia; settings: at 100 μM inhibitor concentration
Experimental: as §1, §2, §3, §4, §5

[4] = molecular target: T2, β-galactosidase (A. oryzae) (Aspergillus oryzae, UniProt Q2UCU3); assay: Glycosidase inhibition assay, β-galactosidase (A. oryzae); format: biochemical; settings: at 100 μM inhibitor concentration
T2 construct: purchased
T2 sequence (Q2UCU3 19-1005): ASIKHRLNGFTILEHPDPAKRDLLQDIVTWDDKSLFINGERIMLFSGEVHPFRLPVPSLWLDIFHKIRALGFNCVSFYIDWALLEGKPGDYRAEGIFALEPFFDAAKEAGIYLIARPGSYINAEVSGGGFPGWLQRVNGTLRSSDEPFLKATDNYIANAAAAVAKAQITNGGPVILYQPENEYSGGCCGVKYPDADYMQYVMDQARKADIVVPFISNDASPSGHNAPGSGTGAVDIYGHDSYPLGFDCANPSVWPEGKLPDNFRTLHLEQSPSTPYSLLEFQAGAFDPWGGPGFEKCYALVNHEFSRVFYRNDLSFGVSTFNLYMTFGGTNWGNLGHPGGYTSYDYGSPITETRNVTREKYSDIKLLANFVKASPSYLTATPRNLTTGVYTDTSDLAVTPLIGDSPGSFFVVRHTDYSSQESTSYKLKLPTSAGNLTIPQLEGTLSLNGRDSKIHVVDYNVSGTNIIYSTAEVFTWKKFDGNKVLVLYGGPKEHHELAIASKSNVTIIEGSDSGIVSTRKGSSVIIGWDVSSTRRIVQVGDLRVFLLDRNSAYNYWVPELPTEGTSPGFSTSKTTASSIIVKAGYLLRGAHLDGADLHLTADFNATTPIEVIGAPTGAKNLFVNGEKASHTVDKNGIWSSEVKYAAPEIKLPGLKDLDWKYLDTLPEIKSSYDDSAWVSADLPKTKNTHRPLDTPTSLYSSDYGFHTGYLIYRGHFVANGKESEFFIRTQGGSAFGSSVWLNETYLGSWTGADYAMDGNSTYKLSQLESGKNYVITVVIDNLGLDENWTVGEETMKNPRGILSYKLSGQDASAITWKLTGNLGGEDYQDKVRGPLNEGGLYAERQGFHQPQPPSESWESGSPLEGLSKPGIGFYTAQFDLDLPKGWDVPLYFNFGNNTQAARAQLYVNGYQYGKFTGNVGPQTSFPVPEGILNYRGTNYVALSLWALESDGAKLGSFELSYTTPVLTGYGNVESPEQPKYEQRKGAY
Experimental: as §1, §2, §3, §4, §5

[5] = molecular target: T3, α-mannosidase (jack beans) (Canavalia ensiformis, UniProt C0HJB3); assay: Glycosidase inhibition assay, α-mannosidase; format: biochemical; settings: for mode of inhibition: Cornish-Bowden method; for Ki: pH 5.6, 35 °C, competitive inhibition
T3 construct: purchased
T3 sequence (C0HJB3 1-981): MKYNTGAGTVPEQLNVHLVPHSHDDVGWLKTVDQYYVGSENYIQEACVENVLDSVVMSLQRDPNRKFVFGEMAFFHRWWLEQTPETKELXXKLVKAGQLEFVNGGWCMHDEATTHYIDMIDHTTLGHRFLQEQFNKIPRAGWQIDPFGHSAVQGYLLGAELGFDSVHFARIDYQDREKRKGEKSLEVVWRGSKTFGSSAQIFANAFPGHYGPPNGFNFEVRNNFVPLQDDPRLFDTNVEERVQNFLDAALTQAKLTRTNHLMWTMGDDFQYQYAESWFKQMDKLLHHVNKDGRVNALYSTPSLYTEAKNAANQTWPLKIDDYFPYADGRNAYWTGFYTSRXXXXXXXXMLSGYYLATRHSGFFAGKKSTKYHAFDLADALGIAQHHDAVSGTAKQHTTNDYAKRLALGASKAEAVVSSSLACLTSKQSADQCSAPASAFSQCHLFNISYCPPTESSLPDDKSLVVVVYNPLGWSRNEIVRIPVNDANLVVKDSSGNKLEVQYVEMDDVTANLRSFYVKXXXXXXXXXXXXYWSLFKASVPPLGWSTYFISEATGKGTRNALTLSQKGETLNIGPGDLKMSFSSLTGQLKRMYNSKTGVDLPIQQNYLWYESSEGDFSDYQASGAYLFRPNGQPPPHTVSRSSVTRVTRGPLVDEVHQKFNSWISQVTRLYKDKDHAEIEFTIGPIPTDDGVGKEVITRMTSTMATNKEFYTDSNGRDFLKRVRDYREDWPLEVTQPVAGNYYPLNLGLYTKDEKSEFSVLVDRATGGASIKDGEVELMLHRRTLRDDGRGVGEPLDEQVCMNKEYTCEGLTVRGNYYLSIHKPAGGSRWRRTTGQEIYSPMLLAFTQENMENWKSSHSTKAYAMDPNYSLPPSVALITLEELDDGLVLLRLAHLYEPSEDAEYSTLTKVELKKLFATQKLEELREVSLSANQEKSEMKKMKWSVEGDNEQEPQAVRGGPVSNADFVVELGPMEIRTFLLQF
Experimental: as §1, §2, §3, §4, §5

[6] = molecular target: T4, β-galactosidase (E. coli) (Escherichia coli, UniProt P00722); assay: Glycosidase inhibition assay, β-galactosidase (E. coli); format: biochemical; settings: at 100 μM inhibitor concentration
T4 construct: purchased
Experimental: as §1, §2, §3, §4, §5

[7] = test system: α-glucosidase (S. cerevisiae); assay: Glycosidase inhibition assay, α-glucosidase; format: biochemical, Saccharomyces cerevisiae; settings: for IC50: 100 μM = maximum inhibitor concentration tested
Experimental: as §1, §2, §3, §4, §5

[8] = molecular target: β-glucosidase (almonds); settings: cited from earlier work
[9] = molecular target: T4, β-galactosidase (E. coli); settings: cited from earlier work
[10] = molecular target: T1, α-galactosidase (green coffee beans); parameters: method as in PMID 21548609; settings: cited from earlier work
[11] = molecular target: T2, β-galactosidase (A. oryzae); parameters: method as in PMID 21548609; settings: cited from earlier work

T4 sequence (P00722 2-1024): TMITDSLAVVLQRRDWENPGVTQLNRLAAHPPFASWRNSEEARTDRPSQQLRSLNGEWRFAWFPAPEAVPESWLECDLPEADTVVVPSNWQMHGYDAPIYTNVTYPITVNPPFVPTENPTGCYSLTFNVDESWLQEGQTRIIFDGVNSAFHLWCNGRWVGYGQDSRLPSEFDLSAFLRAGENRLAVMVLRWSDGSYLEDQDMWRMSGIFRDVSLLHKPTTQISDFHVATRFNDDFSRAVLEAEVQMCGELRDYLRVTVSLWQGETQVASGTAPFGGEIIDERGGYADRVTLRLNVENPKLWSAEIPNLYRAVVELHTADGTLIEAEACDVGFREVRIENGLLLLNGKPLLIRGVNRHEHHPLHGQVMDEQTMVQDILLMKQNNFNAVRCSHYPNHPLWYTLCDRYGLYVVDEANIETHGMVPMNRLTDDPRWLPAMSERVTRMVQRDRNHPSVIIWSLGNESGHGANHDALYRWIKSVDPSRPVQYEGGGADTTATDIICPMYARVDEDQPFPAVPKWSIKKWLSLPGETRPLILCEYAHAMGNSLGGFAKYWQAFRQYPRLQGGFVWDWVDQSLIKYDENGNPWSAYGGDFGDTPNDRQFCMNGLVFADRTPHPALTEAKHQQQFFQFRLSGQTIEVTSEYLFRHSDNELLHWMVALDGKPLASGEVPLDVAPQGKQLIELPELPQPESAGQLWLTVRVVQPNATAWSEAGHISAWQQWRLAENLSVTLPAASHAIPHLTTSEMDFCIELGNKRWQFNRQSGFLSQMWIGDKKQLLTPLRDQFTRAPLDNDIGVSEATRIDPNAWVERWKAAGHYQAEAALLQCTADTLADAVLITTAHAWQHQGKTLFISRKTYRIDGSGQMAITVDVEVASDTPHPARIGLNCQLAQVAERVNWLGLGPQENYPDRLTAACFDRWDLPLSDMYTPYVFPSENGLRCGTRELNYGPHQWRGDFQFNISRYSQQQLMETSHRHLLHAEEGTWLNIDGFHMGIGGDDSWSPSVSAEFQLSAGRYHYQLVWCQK
T1 sequence (Q42656 16-378): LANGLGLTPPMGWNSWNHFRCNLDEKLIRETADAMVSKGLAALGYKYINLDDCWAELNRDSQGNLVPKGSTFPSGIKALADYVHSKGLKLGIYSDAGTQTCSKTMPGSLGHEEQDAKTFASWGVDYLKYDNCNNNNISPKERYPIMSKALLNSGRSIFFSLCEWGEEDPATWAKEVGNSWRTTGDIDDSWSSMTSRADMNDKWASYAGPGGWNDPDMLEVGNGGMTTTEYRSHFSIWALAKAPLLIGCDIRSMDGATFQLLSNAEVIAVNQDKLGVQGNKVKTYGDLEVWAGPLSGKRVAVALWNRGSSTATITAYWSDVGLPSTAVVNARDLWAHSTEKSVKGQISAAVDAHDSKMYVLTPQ

| SMILES | IC50 [1] [µM] | inhibition [2] | inhibition [3] | inhibition [4] | mode of inhibition [5] | Ki [5] [µM] | inhibition [6] | mode of inhibition ([7]; Cornish-Bowden method) | Ki ([7]; pH 6.8, 25 °C) [µM] | IC50 ([7]; pH 6.8, 25 °C) [µM] | inhibition [1] | fold impairment in the activity against α-mannosidase ([5]; N-ethyl 5Cl compared with 4Cl) | inhibition ([5]; at 100 μM inhibitor concentration) | Ki ([8]; source of β-glucosidase not given) [µM] | inhibition [9] | inhibition [10] | Ki [8] [µM] | Ki [11] [µM] |
| --- | --- | --- | --- | --- | --- | --- | --- | --- | --- | --- | --- | --- | --- | --- | --- | --- | --- | --- |
| Cl.N=C1[C@@H](O)[C@H](O)[C@@H](CO)N1N [4Cl, (2R,3R,4R)-1-Amino-3,4-dihydroxy-2-(hydroxymethyl)-5-iminopyrrolidine Hydrochloride] | > 100 | N.I. ^b | N.I. ^b | N.I. ^b | competitive | 0.23 | N.I. ^b | competitive | 5 | 6.6 |  |  |  |  |  |  |  |  |
| CCNN1C(=N)[C@@H](O)[C@H](O)[C@H]1CO.Cl [5Cl, (2R,3R,4R)-1-(Ethylamino)-3,4-dihydroxy-2-(hydroxymethyl)-5-iminopyrrolidine Hydrochloride] |  | N.I. ^b | N.I. ^b | N.I. ^b | competitive | 1.4 | N.I. ^b |  |  | > 100 | N.I. ^b | roughly 6 fold |  |  |  |  |  |  |
| Cl.NN1C(=O)[C@@H](O)[C@H](O)[C@H]1CO [6HCl, (3S,4R,5R)-1-Amino-3,4-dihydroxy-5-(hydroxymethyl)-2-pyrrolidinone Hydrochloride] |  | N.I. ^b | N.I. ^b | N.I. ^b |  |  | N.I. ^b |  |  | > 100 | N.I. ^b |  | N.I. ^b |  |  |  |  |  |
| OC[C@H]1NC[C@H](O)[C@@H](O)[C@@H]1O [DNJ, 1-deoxynojirimycin, reference compound] | […] |  |  | N.I. ^b |  |  | N.I. ^b |  |  |  |  |  |  |  |  |  |  |  |
| OC[C@H]1CNC[C@@H](O)[C@@H]1O [compound 1, isofagomine, reference compound] | 0.48 | N.I. ^b |  | N.I. ^b |  |  | N.I. ^b |  |  | 32 |  |  |  | 0.11 |  |  |  |  |
| N=C1NC[C@H](CO)[C@@H](O)[C@@H]1O [compound 2, isofagomidine] |  |  |  |  |  |  |  |  |  |  |  |  |  |  | N.I. ^d | N.I. ^d | > 210 | 210 |
